This note sets out measurements from patent US20250011318A1 (ARCUS BIOSCIENCES, INC., priority 2023, published 2025).

pEC50, pIC50: −log10 of the molar value.

In one assay the target is T1, Cbl-b (Homo sapiens, UniProt Q13191).
T1 construct: biotin (biotinylated)
Kind of assay: Cbl-b probe displacement HTRF binding assay. To be noted: 0.4 nM biotinylated Cbl-b, 150 nM BODIPY probe. The method in brief:
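Biotinylated Cbl-b (0.4 nM) preincubated 60 min at RT with compound (20-point 1:2 series, 10 μM top), then 150 nM BODIPY probe for 15 min, then streptavidin-terbium detection. Buffer: 20 mM Hepes, 150 mM NaCl, 0.01% Triton X-100, 0.5 mM TCEP, 0.01% BSA. Loss of HTRF signal gave IC50 via four-parameter fit.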
Background: In TR-FRET formats the signal depends on donor and acceptor labels being close together.

A further assay concerns Jurkat cells. Kind of assay: IL-2 secretion assay in CD3/CD28-activated Jurkat cells (AlphaLISA). Type of assay: cell-based, human. The note with it: Homo sapiens, CD3/CD28 T Cell Activator, 24 h, IL-2 AlphaLISA. The method in brief:
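Jurkat cells (50,000/well) preincubated 1 h at 37° C with compound (16-point 1:2 series, final 10 μM to 300 pM) in Opti-MEM, then stimulated with CD3/CD28 activator for 24 h. Supernatant IL-2 read by AlphaLISA; EC50 from 4-parameter logistic fit.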

T1 sequence (Q13191 whole entry, species assumed): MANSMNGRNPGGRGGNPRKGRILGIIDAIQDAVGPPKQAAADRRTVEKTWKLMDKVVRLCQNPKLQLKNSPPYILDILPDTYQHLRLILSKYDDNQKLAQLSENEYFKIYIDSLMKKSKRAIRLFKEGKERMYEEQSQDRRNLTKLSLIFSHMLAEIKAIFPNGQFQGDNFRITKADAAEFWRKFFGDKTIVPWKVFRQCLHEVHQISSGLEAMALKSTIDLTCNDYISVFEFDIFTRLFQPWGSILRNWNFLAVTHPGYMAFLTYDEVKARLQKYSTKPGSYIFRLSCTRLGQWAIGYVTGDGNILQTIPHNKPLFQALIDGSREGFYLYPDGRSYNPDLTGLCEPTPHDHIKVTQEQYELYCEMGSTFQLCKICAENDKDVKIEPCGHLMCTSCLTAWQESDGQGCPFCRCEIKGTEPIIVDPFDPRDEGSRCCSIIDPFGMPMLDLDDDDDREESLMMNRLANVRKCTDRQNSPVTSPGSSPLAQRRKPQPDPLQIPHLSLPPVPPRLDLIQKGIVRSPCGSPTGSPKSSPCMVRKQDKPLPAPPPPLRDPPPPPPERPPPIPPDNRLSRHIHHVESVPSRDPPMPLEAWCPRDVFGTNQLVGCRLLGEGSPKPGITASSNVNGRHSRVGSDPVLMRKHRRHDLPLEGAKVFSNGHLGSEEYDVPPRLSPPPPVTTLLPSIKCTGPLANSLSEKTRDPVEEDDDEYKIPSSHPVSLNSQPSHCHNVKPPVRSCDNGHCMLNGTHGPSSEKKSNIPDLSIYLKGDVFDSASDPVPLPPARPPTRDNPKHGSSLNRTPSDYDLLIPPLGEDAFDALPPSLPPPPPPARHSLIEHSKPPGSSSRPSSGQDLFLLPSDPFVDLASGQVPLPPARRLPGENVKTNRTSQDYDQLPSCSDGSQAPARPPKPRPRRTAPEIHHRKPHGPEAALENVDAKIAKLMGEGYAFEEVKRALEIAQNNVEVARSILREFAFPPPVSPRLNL

`Cc1cnnn1-c1cc(F)ccc1-c1cc(C2CC2)nc(-n2cc(C(F)(F)F)c3nc(C4CC4)[nH]c3c2=O)c1` [Example 133, 2-cyclopropyl-5-{6-cyclopropyl-4-[4-fluoro-2-(5-methyl-1H-1,2,3-triazol-1-yl)phenyl]-2-pyridyl}-7-(trifluoromethyl)-3,5-dihydro-1,3,5-triaza-4-indenone] showed a pIC50 on Cbl-b of over 7.00. Moreover, the pEC50 with Jurkat cells was 6.00 to 7.00.
On to `N#Cc1c[nH]c2c(=O)n(-c3cc(-c4ccc(F)cc4-c4nncn4C(F)F)cc(C4CC4)n3)cc(C(F)(F)F)c12` [Example 134, 6-[6-cyclopropyl-4-[2-[4-(difluoromethyl)-1,2,4-triazol-3-yl]-4-fluorophenyl]pyridin-2-yl]-7-oxo-4-(trifluoromethyl)-1H-pyrrolo[2,3-c]pyridine-3-carbonitrile], for which the pIC50 on Cbl-b was over 7.00. Also, the pEC50 in the assay with Jurkat cells is over 7.00.
At Cbl-b, `Cn1cnnc1-c1cc(F)ccc1-c1cc(C2CC2)nc(-n2cc(C(F)(F)F)c3c(C#N)c[nH]c3c2=O)c1` [Example 135, 6-[6-cyclopropyl-4-[4-fluoro-2-(4-methyl-1,2,4-triazol-3-yl)phenyl]pyridin-2-yl]-7-oxo-4-(trifluoromethyl)-1H-pyrrolo[2,3-c]pyridine-3-carbonitrile] had a pIC50 of over 7.00. In the assay on Jurkat cells, the pEC50 is over 7.00.
With `Cn1ccnc1-c1cc(F)ccc1-c1cc(C2CC2)nc(-n2cc(C(F)(F)F)c3c(C#N)c[nH]c3c2=O)c1` [Example 136, 6-{6-cyclopropyl-4-[4-fluoro-2-(1-methyl-2-imidazolyl)phenyl]-2-pyridyl}-7-oxo-4-(trifluoromethyl)-1,6-dihydro-1,6-diaza-3-indenecarbonitrile], the pIC50 on Cbl-b is over 7.00. In addition, the pEC50 in the assay with Jurkat cells is over 7.00.
Take `Cn1cnnc1-c1cc(F)ccc1-c1cc(C2CC2)nc(-n2cc(C(F)(F)F)c3cc(CO)[nH]c3c2=O)c1` [Example 137, 6-[6-cyclopropyl-4-[4-fluoro-2-(4-methyl-1,2,4-triazol-3-yl)phenyl]pyridin-2-yl]-2-(hydroxymethyl)-4-(trifluoromethyl)-1H-pyrrolo[2,3-c]pyridin-7-one]: at Cbl-b, the pIC50 is over 7.00. The compound also had a pEC50 in the assay with Jurkat cells of over 7.00.
At Cbl-b, `COCCNCc1cc2ncn(-c3cc(-c4ccc(F)cc4-n4nncc4CF)cc(C4CC4)n3)c(=O)c2[nH]1` [Example 138, 3-[6-cyclopropyl-4-[4-fluoro-2-[5-(fluoromethyl)triazol-1-yl]phenyl]pyridin-2-yl]-6-[(2-methoxyethylamino)methyl]-5H-pyrrolo[3,2-d]pyrimidin-4-one] had a pIC50 of over 7.00. In addition, the pEC50 with Jurkat cells is over 7.00.
With `CO[C@@H](C)CNCc1cc2ncn(-c3cc(-c4ccc(C#N)cc4-n4nncc4CF)cc(C4CC4)n3)c(=O)c2[nH]1` [Example 139, 4-[2-(2-{[(S)-2-methoxypropylamino]methyl}-7-oxo-1,6-dihydro-1,4,6-triaza-6-indenyl)-6-cyclopropyl-4-pyridyl]-3-[5-(fluoromethyl)-1H-1,2,3-triazol-1-yl]benzonitrile], on Cbl-b, the pIC50 was over 7.00. This compound had a pEC50 in the assay on Jurkat cells of over 7.00.
At Cbl-b, `Cc1ccnn1-c1cc(F)ccc1-c1cc(C2CC2)nc(-n2cc(C3CC3)c3cc(CNC4(C)CCC4)[nH]c3c2=O)c1` [Example 140, 4-cyclopropyl-6-[6-cyclopropyl-4-[4-fluoro-2-(5-methylpyrazol-1-yl)phenyl]pyridin-2-yl]-2-[[(1-methylcyclobutyl)amino]methyl]-1H-pyrrolo[2,3-c]pyridin-7-one] had a pIC50 of over 7.00. This compound showed a pEC50 in the assay on Jurkat cells of 6.00 to 7.00.
For `Cn1cnnc1-c1cc(F)ccc1-c1cc(C2CC2)nc(-n2cc(C(F)(F)F)c3cc[nH]c3c2=O)c1` [Example 141, 6-[6-cyclopropyl-4-[4-fluoro-2-(4-methyl-1,2,4-triazol-3-yl)phenyl]pyridin-2-yl]-4-(trifluoromethyl)-1H-pyrrolo[2,3-c]pyridin-7-one] the same measures were over 7.00 and over 7.00.
As for `COCCNCc1cc2c(C(F)(F)F)cn(-c3cc(-c4ccc(F)cc4-n4nccc4C(F)(F)F)cc(C4CC4)n3)c(=O)c2[nH]1` [Example 142, 6-[6-cyclopropyl-4-[4-fluoro-2-[5-(trifluoromethyl)pyrazol-1-yl]phenyl]pyridin-2-yl]-2-[(2-methoxyethylamino)methyl]-4-(trifluoromethyl)-1H-pyrrolo[2,3-c]pyridin-7-one], the pIC50 on Cbl-b is over 7.00. In addition, the pEC50 in the assay on Jurkat cells was 6.00 to 7.00.
For `Cc1cncnc1-c1cc(F)ccc1-c1cc(C2CC2)nc(N2Cc3ccc(CN4CCC[C@H](C)C4)cc3C2=O)c1` [Example 143, 2-[6-Cyclopropyl-4-[4-fluoro-2-(5-methylpyrimidin-4-yl)phenyl]pyridin-2-yl]-6-[[(3S)-3-methylpiperidin-1-yl]methyl]-3H-isoindol-1-one], on Cbl-b, the pIC50 is over 7.00. In addition, in the assay on Jurkat cells, the pEC50 was 5.30 to 6.00.
For `Cn1cnnc1-c1cc(F)ccc1-c1cc(C2CC2)nc(-n2cc(C#N)c3c4c([nH]c3c2=O)CCCC4)c1` [Example 144, 2-{6-Cyclopropyl-4-[4-fluoro-2-(4-methyl-4H-1,2,4-triazol-3-yl)phenyl]-2-pyridyl}-1-oxo-2,5,6,7,8,9-hexahydroβ-carboline-4-carbonitrile] the same measures were over 7.00 and over 7.00.

Broadly, the pIC50 is the IC50 on a negative log10 scale, so that one unit is a factor of ten. A high value points to a low IC50. By pEC50 is commonly meant the EC50 on a negative log10 scale, so that one unit is a factor of ten. Higher therefore signals a low EC50.
